Measured values from PubChem BioAssay AID248 (DTP/NCI, 2004).
Values joined by “and” are separate entries in the source; they are usually repeats but may differ in a detail not shown here. Equal values may be shown once. Toxic doses and inconclusive results are not listed. No stated cut-off is given here; in the data, active means T/C of 150% or more; inactive means T/C below 125%.

System: L1210 leukemia ip in BDF1 mice, survival T/C
Experiment: NCI In Vivo Anticancer Drug Screen. Data for tumor model L1210 Leukemia (intraperitoneal) in B6D2F1 (BDF1) mice
Settings: endpoint: mean survival time, higher = longer survival
Method in brief: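 Survival endpoint. Drug-treated group vs vehicle group, expressed as T divided by C. Tumor passaged by transplantation.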

[1] = dose: 100.0 mg/kg/injection, schedule: Q04DX002 (ip), vehicle: saline with Tween-80
[2] = dose: 200.0 mg/kg/injection, schedule: Q04DX002 (ip), vehicle: saline with Tween-80
[3] = dose: 400.0 mg/kg/injection, schedule: Q04DX002 (ip), vehicle: saline with Tween-80
[4] = dose: 100.0 mg/kg/injection, schedule: Q01DX001 (ip), vehicle: Klucel (hydroxypropylcellulose) (HPC)
[5] = dose: 200.0 mg/kg/injection, schedule: Q01DX001 (ip), vehicle: Klucel (hydroxypropylcellulose) (HPC)
[6] = dose: 100.0 mg/kg/injection, schedule: Q04DX003 (ip), vehicle: saline with Tween-80
[7] = dose: 200.0 mg/kg/injection, schedule: Q04DX003 (ip), vehicle: saline with Tween-80
[8] = dose: 400.0 mg/kg/injection, schedule: Q04DX003 (ip), vehicle: saline with Tween-80
[9] = dose: 100.0 mg/kg/injection, schedule: Q01DX001 (ip), vehicle: carboxymethylcellulose (CMC)
[10] = dose: 50.0 mg/kg/injection, schedule: Q01DX001 (ip), vehicle: saline
[11] = dose: 100.0 mg/kg/injection, schedule: Q01DX001 (ip), vehicle: saline
[12] = dose: 200.0 mg/kg/injection, schedule: Q01DX001 (ip), vehicle: saline
[13] = dose: 400.0 mg/kg/injection, schedule: Q01DX001 (ip), vehicle: saline
[14] = dose: 200.0 mg/kg/injection, schedule: Q01DX001 (ip), vehicle: carboxymethylcellulose (CMC)
[15] = dose: 400.0 mg/kg/injection, schedule: Q01DX001 (ip), vehicle: carboxymethylcellulose (CMC)
[16] = dose: 100.0 mg/kg/injection, schedule: Q04DX003 (ip), vehicle: saline
[17] = dose: 200.0 mg/kg/injection, schedule: Q04DX003 (ip), vehicle: saline

Measured: T/C

CC(C)c1ccc(/C(=N\N=C(N)N)C2CC2)cc1
inactive: dose: 15.0 mg/kg/injection, schedule: Q01DX Z (ip), vehicle: carboxymethylcellulose (CMC) 93 % of control | dose: 30.0 mg/kg/injection, schedule: Q01DX Z (ip), vehicle: carboxymethylcellulose (CMC) 95 % of control | dose: 60.0 mg/kg/injection, schedule: Q01DX Z (ip), vehicle: carboxymethylcellulose (CMC) 92 % of control and 93 % of control | dose: 120.0 mg/kg/injection, schedule: Q01DX Z (ip), vehicle: carboxymethylcellulose (CMC) 95 % of control and 96 % of control | dose: 120.0 mg/kg/injection, schedule: Q01DX Z (oral), vehicle: carboxymethylcellulose (CMC) 101 % of control | dose: 240.0 mg/kg/injection, schedule: Q01DX Z (ip), vehicle: carboxymethylcellulose (CMC) 93 % of control | dose: 240.0 mg/kg/injection, schedule: Q01DX Z (oral), vehicle: carboxymethylcellulose (CMC) 110 % of control | dose: 480.0 mg/kg/injection, schedule: Q01DX Z (oral), vehicle: carboxymethylcellulose (CMC) 102 % of control | dose: 960.0 mg/kg/injection, schedule: Q01DX Z (oral), vehicle: carboxymethylcellulose (CMC) 102 % of control

O=[N+]([O-])C1CC(Cl)CCC1SSC1CCC(Cl)CC1[N+](=O)[O-] (configuration not stated)
inactive: [1] 95 % of control | [2] 98 % of control | [3] 92 % of control

CN(C)C(=S)Oc1ccc(C(C)(C)C)cc1
inactive: [4] 96 % of control | [5] 98 % of control | dose: 400.0 mg/kg/injection, schedule: Q01DX001 (ip), vehicle: Klucel (hydroxypropylcellulose) (HPC) 90 % of control

CC(=O)c1ccc(OCc2ccccc2)cc1OCC(O)CN1CCN(c2ccc(C)c(C)c2)CC1 (configuration not stated)
inactive: [6] 97 % of control | [7] 95 % of control | [8] 92 % of control

O=C(O)c1ccccc1NC(C(=O)O)c1ccccc1 (configuration not stated)
inactive: [1] 100 % of control | [2] 96 % of control | [3] 96 % of control

COC(=O)c1ccccc1NC1=NCCO1
inactive: dose: 50.0 mg/kg/injection, schedule: Q04DX002 (ip), vehicle: saline with Tween-80 98 % of control | [1] 104 % of control | [2] 91 % of control | [3] 88 % of control

Cc1ccc2[nH]c(=O)cc(C)c2c1
inactive: [9] 102 % of control | [6] 95 % of control | [7] 98 % of control | [8] 101 % of control

CC(=O)N(C=C(C#N)C#N)c1ccccc1
inactive: [4] 104 % of control | dose: 100.0 mg/kg/injection, schedule: Q04DX003 (ip), vehicle: Klucel (hydroxypropylcellulose) (HPC) 108 % of control | [5] 106 % of control | dose: 200.0 mg/kg/injection, schedule: Q04DX003 (ip), vehicle: Klucel (hydroxypropylcellulose) (HPC) 96 % of control | dose: 400.0 mg/kg/injection, schedule: Q04DX003 (ip), vehicle: Klucel (hydroxypropylcellulose) (HPC) 116 % of control

CN(Cc1ccccc1)c1ccccc1
inactive: [10] 97 % of control | [11] 97 % of control | [12] 97 % of control | [13] 97 % of control

Cc1ccccc1C(=O)c1ccccc1C(=O)c1ccccc1
inactive: dose: 50.0 mg/kg/injection, schedule: Q01DX001 (ip), vehicle: carboxymethylcellulose (CMC) 98 % of control | [9] 88 % of control | dose: 100.0 mg/kg/injection, schedule: Q01DX009 (ip), vehicle: saline 97 % of control | [14] 93 % of control | dose: 200.0 mg/kg/injection, schedule: Q01DX009 (ip), vehicle: saline 95 % of control | [15] 101 % of control | dose: 400.0 mg/kg/injection, schedule: Q01DX009 (ip), vehicle: saline 97 % of control

Cc1cc(CN(C)C)cc(C(C)C)c1O
inactive: dose: 12.5 mg/kg/injection, schedule: Q01DX009 (ip), vehicle: saline with Tween-80 96 % of control | dose: 25.0 mg/kg/injection, schedule: Q01DX009 (ip), vehicle: saline with Tween-80 97 % of control

[N-]=[N+]=C1C(Cl)=C(Cl)C(Cl)=C1Cl
inactive: dose: 75.0 mg/kg/injection, schedule: Q01DX001 (ip), vehicle: other 96 % of control | dose: 150.0 mg/kg/injection, schedule: Q01DX001 (ip), vehicle: other 102 % of control

N#CCC(=O)N1Cc2cc3ccccc3nc2C1
inactive: dose: 100.0 mg/kg/injection, schedule: Q04DX003 (ip), vehicle: saline sonified 115 % of control | dose: 200.0 mg/kg/injection, schedule: Q04DX003 (ip), vehicle: saline sonified 95 % of control | dose: 400.0 mg/kg/injection, schedule: Q04DX003 (ip), vehicle: saline sonified 101 % of control

CCSC(=O)n1nc(Cl)c2cc([N+](=O)[O-])ccc21
inactive: [9] 93 % of control | [14] 102 % of control | [15] 93 % of control

C=CC(C)(C)CCCC
inactive: [16] 104 % of control | [17] 101 % of control | dose: 400.0 mg/kg/injection, schedule: Q04DX003 (ip), vehicle: saline 110 % of control

O=S1(=O)c2ccccc2C(=NO)c2ccccc21
inactive: dose: 75.0 mg/kg/injection, schedule: Q01DX009 (ip), vehicle: other 98 % of control | [11] 97 % of control | dose: 150.0 mg/kg/injection, schedule: Q01DX009 (ip), vehicle: other 98 % of control | [12] 94 % of control | dose: 300.0 mg/kg/injection, schedule: Q01DX009 (ip), vehicle: other 93 % of control | [13] 97 % of control

CCOC(=O)C(CCCCC(C(=O)OCC)C(=O)OCC)C(=O)OCC
inactive: [11] 103 % of control | [12] 109 % of control | [13] 105 % of control

C#CCCCCCC#CCCCCCC#CCCCCCC#C
inactive: dose: 100.0 mg/kg/injection, schedule: Q04DX003 (ip), vehicle: acetone 94 % of control | dose: 200.0 mg/kg/injection, schedule: Q04DX003 (ip), vehicle: acetone 95 % of control

CC1(C)N=C(N)N=C(N)N1c1ccc(C#N)cc1
inactive: [11] 100 % of control

CCS/C(Cl)=C(\Cl)SCC
inactive: dose: 25.0 mg/kg/injection, schedule: Q01DX009 (ip), vehicle: Klucel (hydroxypropylcellulose) (HPC) 101 % of control | dose: 50.0 mg/kg/injection, schedule: Q01DX009 (ip), vehicle: Klucel (hydroxypropylcellulose) (HPC) 106 % of control | dose: 100.0 mg/kg/injection, schedule: Q01DX009 (ip), vehicle: Klucel (hydroxypropylcellulose) (HPC) 102 % of control and 109 % of control

CC1=C(C(=O)O)CCCO1
inactive: [11] 98 % of control | [12] 98 % of control | [13] 98 % of control

CCP(=O)(CC)OCCCCOP(=O)(CC)CC
inactive: dose: 75.0 mg/kg/injection, schedule: Q01DX Z (ip), vehicle: saline 104 % of control | dose: 100.0 mg/kg/injection, schedule: Q01DX Z (ip), vehicle: saline 98 % of control

CCOC(=O)C(C)(c1[nH]c2ccccc2c1C)c1[nH]c2ccccc2c1C
inactive: [10] 103 % of control | [11] 103 % of control | [12] 95 % of control | [13] 89 % of control

CN(C)C(=O)c1cccc(COc2ccc(N)cc2Cl)c1
inactive: [16] 96 % of control | [17] 106 % of control

CC[N+]12CC[N+](CC)(CC1)C2
inactive: [11] 103 % of control | [12] 101 % of control | [13] 91 % of control
